For this experiment, the system named is prejunctional AII receptors and sympathetic outflow. The experiment can be described thus: Spinal cord-stimulated pithed rats: pressor response to stimulation of sympathetic vasomotor outflow. The format is in vivo, Sprague-Dawley rats. Particulars: pithed rat; for inhibition of the pressor responses mediated by sympathetic nervous system activation (spinal cord stimulation): 0.3 mg/kg, i.v. 10 min before second frequency-response curve, 50 V, 1 msec, 0.3-5.0 Hz. How it is done:
Normotensive male Sprague-Dawley rats (300-350 gm) were anesthetized with Brevital (10 mg/kg, i.v.), a tracheostomy was performed and the rats were then pithed by inserting a steel rod (1.5 mm in diameter) through the orbit and foramen magnum into the spinal cord. Immediately after pithing, rats were ventilated artificially with room air using a rodent respirator at a frequency of 60 cycles/min with a volume of 2 ml/100 gm body weight. The pithing rod was insulated except for a 6-cm section distal from the tip. Body temperature was maintained at 37-38° C. by a thermostatic heating pad. Animals were treated with tubocurararine (1 mg/kg, i.v) and atropine (1 mg/kg, i.v.), to prevent muscle movement during spinal cord stimulation and parasympathetic effects, respectively. Systemic arterial blood pressure was measured from the right carotid artery by a Statham P23 pressure transducer and recorded on a Grass polygraph. The left jugular vein was cannulated for i.v. administration of drugs.
Stimulation of sympathetic vasomotor outflow was accomplished by a consecutive train of stimulation (50 V, 1 msec, 0.3-5.0 Hz) which was delivered for 15 sec at each frequency. […] For all the compounds evaluated, this dose provided effective blockade of the pressor response to exogenous AII (100 ng/kg, i.v.). Each rat served as its own control.
AII data are shown as the means±S.E.M. of the number (n) of observations. Statistical significance of the differences between drug-treated animals and vehicle-control animals was tested by a one-way analysis of variance with a P valued of 0.05 accepted as significant.

In the case of `CCCCC1=NC2(CCCC2)C(=O)N1Cc1ccc(-c2ccccc2-c2nnn[nH]2)cc1` [irbesartan], the “inhibition of the pressor responses mediated by sympathetic nervous system activation (spinal cord stimulation)” value (“inhibition … (spinal cord stimulation)” for short) is reported as “neither losartan, valsartan, or irbesartan produced significant inhibition”.
As to “angiotensin II (DRVYIHPF; Angiotensin-2; UniProt P01019 25-32, looked up) [AII, angiotensin II (AII), infused at a sub-pressor dose]”, for the setting “continuous infusion of a sub-pressor dose, 40 ng/kg/min”, the “shift of the frequency-response curve (pressor response to spinal cord stimulation)” value is listed as “significant leftward shifts”.
In the case of Sar^1-Ile^8[AII], where the note is “continuous infusion 10 ug/kg/min”, the “inhibition of the increase in pressor response to spinal cord stimulation” value is on record as “significantly inhibited”.
As for `CCCCc1ncc(/C=C(\Cc2cccs2)C(=O)O)n1Cc1ccc(C(=O)O)cc1` [Eprosartan, (E)-α-[2-n-butyl-1-[(4-carboxyphenyl)methyl]-1H-imidazol-5-yl]methylene-2-thiophenepropionic acid monomethanesulfonate], the “inhibition … (spinal cord stimulation)” value is “significant inhibition”.
Same read-out and setting: the same measure for `CCCCC(=O)N(Cc1ccc(-c2ccccc2-c2nnn[nH]2)cc1)[C@H](C(=O)O)C(C)C` [valsartan]: “neither losartan, valsartan, or irbesartan produced significant inhibition”.
`CCCCc1nc(Cl)c(CO)n1Cc1ccc(-c2ccccc2-c2nn[nH]n2)cc1` [losartan]: the “inhibition … (spinal cord stimulation)” value was “neither losartan, valsartan, or irbesartan produced significant inhibition”.
